These results are taken from patent publication US12590096B2, “Imidazo[2,1-f][1,2,4]triazin-4-amine as TLR8 agonists” (BeOne Medicines | GmbH, priority 2019, dated 2026).

Molecules are shown by their SMILES.

The test has as its target T1, human TLR 8 protein in HEK-blue hTLR 8 tool cell line (Homo sapiens, UniProt Q9NR97).
T1 construct: expressed in transfected cells; host or cells: HEK293 (HEK-Blue hTLR8)
T1 sequence (Q9NR97 27-1041): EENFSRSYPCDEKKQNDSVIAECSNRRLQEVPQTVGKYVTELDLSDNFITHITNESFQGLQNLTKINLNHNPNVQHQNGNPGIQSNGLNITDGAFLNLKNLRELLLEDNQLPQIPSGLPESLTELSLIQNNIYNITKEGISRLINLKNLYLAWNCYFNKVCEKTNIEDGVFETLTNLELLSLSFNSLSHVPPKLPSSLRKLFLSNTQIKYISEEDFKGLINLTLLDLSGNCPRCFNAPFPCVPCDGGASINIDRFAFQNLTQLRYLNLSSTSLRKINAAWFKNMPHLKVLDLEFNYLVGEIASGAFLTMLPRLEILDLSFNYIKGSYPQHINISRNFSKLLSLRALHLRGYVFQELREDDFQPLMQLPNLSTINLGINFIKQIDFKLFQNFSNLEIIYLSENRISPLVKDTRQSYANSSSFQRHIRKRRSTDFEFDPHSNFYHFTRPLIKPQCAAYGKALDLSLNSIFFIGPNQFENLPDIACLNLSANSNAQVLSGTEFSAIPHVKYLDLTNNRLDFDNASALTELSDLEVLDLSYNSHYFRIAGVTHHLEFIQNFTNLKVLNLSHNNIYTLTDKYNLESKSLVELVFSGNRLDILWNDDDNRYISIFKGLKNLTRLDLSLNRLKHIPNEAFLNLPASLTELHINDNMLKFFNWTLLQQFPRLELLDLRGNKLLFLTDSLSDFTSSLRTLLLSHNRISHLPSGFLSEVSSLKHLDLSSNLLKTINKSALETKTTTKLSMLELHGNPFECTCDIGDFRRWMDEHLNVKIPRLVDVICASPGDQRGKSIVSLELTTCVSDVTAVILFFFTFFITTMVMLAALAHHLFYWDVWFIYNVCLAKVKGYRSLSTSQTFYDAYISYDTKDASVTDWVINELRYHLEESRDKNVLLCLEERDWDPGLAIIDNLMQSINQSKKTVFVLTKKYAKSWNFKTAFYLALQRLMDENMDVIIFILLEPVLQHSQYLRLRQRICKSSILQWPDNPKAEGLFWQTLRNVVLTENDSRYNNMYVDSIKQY
Briefly: TLR8 stimulation determined by HEK-Blue Detection (NF-κB/SEAP reporter). Type of test: cell-based. Conditions: HEK-Blue hTLR8 cells, 16 h incubation, relative to maximum activation by Resiquimod or motolimod; read-out: EC50 (nmol). The source says:
TLR8 Stimulation Determined by HEK-Blue Detection
This assay was designed to study the stimulation of human TLR 8 protein in HEK-blue hTLR 8 tool cell line by monitoring the activation of NF-κB. HEK-blue hTLR8 cells were obtained by co-transfection of hTLR8 gene and optimized secretory embryonic alkaline phosphatase (SEAP) reporter gene into HEK293 cells. SEAP reporter gene was put under the control of […] minimal promoter fused with five NF-κB and AP-1-binding sites. NF-κB and AP-1 were activated by stimulation with TLR 8 ligand, thus inducing the expression of SEAP. The level of SEAP can be easily determined by HEK-Blue Detection (a cell culture medium that allows real-time detection of SEAP). HEK-Blue Detection comprises all nutrients needed for cell growth and specific SEAP color substrates. The hydrolysis of substrate by SEAP produces purple/blue color which can be measured by spectrophotometer.
When growing to 50-80% confluence, HEK-Blue hTLR7/8 cells were plated into 96-well plates (costar 3599) at a density of 40,000 cells/well. Then, the compound serially diluted at 10 points with a final concentration ranging from 1 nM to 10 μm in 0.1% DMSO/HEK-Blue Detection was added. The plates were then incubated in 5% CO2 at 37° C. for 16 h. Optical density at 620-655 nm was read on BMG PHERAstar FSX instrument. The EC50 of each compound was determined by calculating the maximum activation percentage identified using Resiquimod or motolimod.
The EC50 of the tested compound of the present invention is as follows.
Consider `CCC[C@H](C)Oc1nc(N)c2ncc(CC3CCN(CC(C)NC)CC3)n2n1` (single isomer, unassigned) [Compound B58, 7-((1-((R or S)-2-(methylamino)propyl)piperidin-4-yl)methyl)-2-(((S)-pent-2-yl)oxy)imidazo[2,1-f][1,2,4]triazin-4-amine], for which the EC50 (as a rule, the midpoint of the concentration-response curve) was 24 nM.
The value for `CCC[C@H](C)Oc1nc(N)c2ncc(CC3CCN(CC(C)NC)CC3)n2n1` (single isomer, unassigned) [Compound B59, 7-((1-((S or R)-2-(methylamino)propyl)piperidin-4-yl)methyl)-2-(((S)-pent-2-yl)oxy)imidazo[2,1-f][1,2,4]triazin-4-amine] was 21 nM.
For the molecule `CCCCOc1nc(N)c2ncc(CC3CCNCC3)n2n1` [Compound B1, 2-butoxy-7-(piperidin-4-ylmethyl)imidazo[2,1-f][1,2,4]triazin-4-amine], the EC50 worked out at 51 nM.
For `CCCC(C)Oc1nc(N)c2ncc(CC3CCNCC3)n2n1` (centres unmarked) [Compound B2, 2-(pent-2-yloxy)-7-(piperidin-4-ylmethyl)imidazo[2,1-f][1,2,4]triazin-4-amine], the EC50 stood at 15 nM.
The same measure for `CCCCOc1nc(N)c2ncc(CCC3CCNCC3)n2n1` [Compound B3, 2-butoxy-7-(2-(piperidin-4-yl)ethyl)imidazo[2,1-f][1,2,4]triazin-4-amine]: 346 nM; for `CCCCNc1nc(N)c2ncc(CC3CCNCC3)n2n1` [Compound B4, N2-butyl-7-(piperidin-4-ylmethyl)imidazo[2,1-f][1,2,4]triazin-2,4-diamine]: 347 nM.
The same measure for `CCCC(C)Nc1nc(N)c2ncc(CC3CCNCC3)n2n1` (centres unmarked) [Compound B5, N2-(pent-2-yl)-7-(piperidin-4-ylmethyl)imidazo[2,1-f][1,2,4]triazin-2,4-diamine]: 917 nM; for `CCCC(C)Oc1nc(N)c2ncc(CC3(C)CCNCC3)n2n1` (centres unmarked) [Compound B8, 7-((4-methylpiperidin-4-yl)methyl)-2-(pent-2-yloxy)imidazo[2,1-f][1,2,4]triazin-4-amine]: 515 nM; for `CCCC(C)Oc1nc(N)c2ncc(CN3CCNCC3)n2n1` (centres unmarked) [Compound B9, 2-(pent-2-yloxy)-7-(piperazin-1-ylmethyl)imidazo[2,1-f][1,2,4]triazin-4-amine]: 529 nM.
The same measure for `CCC[C@H](C)Oc1nc(N)c2ncc(CC3CCCNC3)n2n1` (stereo partly drawn) [Compound B10, 2—(((S)-pent-2-yl)oxy)-7-(piperidin-3-ylmethyl)imidazo[2,1-f][1,2,4]triazin-4-amine]: 172 nM.
Take `CCCCCc1nc(N)c2ncc(CC3CCNCC3)n2n1` [Compound B11, 2-pentyl-7-(piperidin-4-ylmethyl)imidazo[2,1-f][1,2,4]triazin-4-amine]: the EC50 turned out to be 1790 nM.
The same measure for `CCC[C@H](C)Oc1nc(N)c2ncc(CC3CCN(C4CCNC4)CC3)n2n1` (stereo partly drawn) [Compound B13, 2—(((S)-pent-2-yl)oxy)-7-((1-(pyrrolidin-3-yl)piperidin-4-yl)methyl)imidazo[2,1-f][1,2,4]triazin-4-amine]: 387 nM; for `CCC[C@H](C)Oc1nc(N)c2ncc(CC3CCN(CC4CCNCC4)CC3)n2n1` [Compound B14, (S)-2-(pent-2-yloxy)-7-((1-(piperidin-4-ylmethyl)piperidin-4-yl)methyl)imidazo[2,1-f][1,2,4]triazin-4-amine]: 138 nM; for `CCCC(C)Oc1nc(N)c2ncc(CN3CCN[C@H](C)C3)n2n1` (stereo partly drawn) [Compound B15, 7—(((R)-3-methylpiperazin-1-yl)methyl)-2-(pent-2-yloxy)imidazo[2,1-f][1,2,4]triazin-4-amine]: 1080 nM.
For `CCCC(C)Oc1nc(N)c2ncc(CN3CCN[C@@H](C)C3)n2n1` (stereo partly drawn) [Compound B16, 7—(((S)-3-methylpiperazin-1-yl)methyl)-2-(pent-2-yloxy)imidazo[2,1-f][1,2,4]triazin-4-amine], the EC50 came to 8490 nM.
Take `CCCC(C)Oc1nc(N)c2ncc(CN3CCNC[C@@H]3C)n2n1` (stereo partly drawn) [Compound B17, 7—(((S)-2-methylpiperazin-1-yl)methyl)-2-(pent-2-yloxy)imidazo[2,1-f][1,2,4]triazin-4-amine]: the EC50 was 3950 nM.
The same measure for `CCCC(C)Oc1nc(N)c2ncc(CN3CCNC[C@H]3C)n2n1` (stereo partly drawn) [Compound B18, 7—(((R)-2-methylpiperazin-1-yl)methyl)-2-(pent-2-yloxy)imidazo[2,1-f][1,2,4]triazin-4-amine]: 2720 nM; for `CCC[C@H](C)Oc1nc(N)c2ncc(CC3CCN(CC4CCCN4)CC3)n2n1` (stereo partly drawn) [Compound B20, 2—(((S)-pent-2-yl)oxy)-7-((1-(pyrrolidin-2-ylmethyl)piperidin-4-yl)methyl)imidazo[2,1-f][1,2,4]triazin-4-amine]: 558 nM.
The value for `CCCC(C)Oc1nc(N)c2ncc(CN3CCC(NC)CC3)n2n1` (centres unmarked) [Compound B21, 7-((4-(methylamino)piperidin-1-yl)methyl)-2-(pent-2-yloxy)imidazo[2,1-f][1,2,4]triazin-4-amine] was above 10000 nM; that for `CCCC(C)Oc1nc(N)c2ncc(CN3CCC(CNC)CC3)n2n1` (centres unmarked) [Compound B22] was above 10000 nM; that for `CCC[C@H](C)Oc1nc(N)c2ncc(CC3CCN(C4CCNCC4)CC3)n2n1` [Compound B23, (S)-7-([1,4′-bipiperidin]-4-ylmethyl)-2-(pent-2-yloxy)imidazo[2,1-f][1,2,4]triazin-4-amine] was 143 nM.
The same measure for `CCCC(C)Oc1nc(N)c2ncc(C3(O)CC4(CCNCC4)C3)n2n1` (centres unmarked) [Compound B24, 2-(4-amino-2-(pent-2-yloxy)imidazo[2,1-f][1,2,4]triazin-7-yl)-7-azaspiro[3.5]nona-2-ol]: above 10000 nM; for `CCC[C@H](C)Oc1nc(N)c2ncc(CC3CCNC3)n2n1` (stereo partly drawn) [Compound B26, 2—(((S)-pent-2-yl)oxy)-7-(pyrrolidin-3-ylmethyl)imidazo[2,1-f][1,2,4]triazin-4-amine]: 99 nM; for `CCCC(CCO)Oc1nc(N)c2ncc(CC3CCNCC3)n2n1` (centres unmarked) [Compound B28, 3-((4-amino-7-(piperidin-4-ylmethyl)imidazo[2,1-f][1,2,4]triazin-2-yl)oxy)hexan-1-ol]: 308 nM.
For the molecule `CCCC(C)Oc1nc(N)c2ncc(CC3CCCCC3)n2n1` (centres unmarked) [Compound B29, 7-(cyclohexylmethyl)-2-(pent-2-yloxy)imidazo[2,1-f][1,2,4]triazin-4-amine], the EC50 was above 10000 nM.
The value for `CCC[C@H](C)Oc1nc(N)c2ncc(CC3CCC(NC)CC3)n2n1` (stereo partly drawn) [Compound B31, (S)-7-((4-(methylamino)cyclohexyl)methyl)-2-(pent-2-yloxy)imidazo[2,1-f][1,2,4]triazin-4-amine] was 103 nM; that for `CCC[C@H](C)Oc1nc(N)c2ncc(CC3CCN(C)CC3)n2n1` [Compound B32, (S)-7-((1-methylpiperidin-4-yl)methyl)-2-(pent-2-yloxy)imidazo[2,1-f][1,2,4]triazin-4-amine] was 22 nM; that for `CCC[C@H](C)Oc1nc(N)c2ncc(C[C@H]3[C@@H]4CNC[C@@H]43)n2n1` [Compound B33, 7-(((1R,5S,6s)-3-azabicyclo[3.1.0]hex-6-yl)methyl)-2-(((S)-pent-2-yl)oxy)imidazo[2,1-f][1,2,4]triazin-4-amine] was 766 nM.
The same measure for `CCCC(CO)Oc1nc(N)c2ncc(CC3CCNCC3)n2n1` (centres unmarked) [Compound B34, 2-((4-amino-7-(piperidin-4-ylmethyl)imidazo[2,1-f][1,2,4]triazin-2-yl)oxy) pentan-1-ol]: 225 nM.
